From a compilation of properties of binary mixtures (doi:10.1021/je970101l)

Assay: excess molar enthalpy (molar enthalpy of mixing); xn = mol fraction of the nth substance listed
Conditions: 298.15 K, 100 kPa

CCCCCOC(C)=O + COC(=O)OC
Conditions	excess molar enthalpy [kcal/mol]
x2 = 0.0684	0.0139
x2 = 0.128	0.0272
x2 = 0.1804	0.0392
x2 = 0.2269	0.0502
x2 = 0.3057	0.0669
x2 = 0.3699	0.0808
x2 = 0.54	0.0954
x2 = 0.6378	0.093
x2 = 0.7254	0.0815
x2 = 0.7789	0.0722
x2 = 0.8409	0.0571
x2 = 0.8757	0.0476
x2 = 0.9337	0.0263
x2 = 0.9548	0.0179
x2 = 0.9769	0.00908

CCOC(C)=O + COC(=O)OC
Conditions	excess molar enthalpy [kcal/mol]
x2 = 0.0426	0.00177
x2 = 0.0883	0.00289
x2 = 0.1269	0.00413
x2 = 0.1623	0.00504
x2 = 0.2252	0.00626
x2 = 0.3677	0.00832
x2 = 0.5376	0.00975
x2 = 0.6356	0.00956
x2 = 0.7772	0.00755
x2 = 0.823	0.00667
x2 = 0.9029	0.00406
x2 = 0.9331	0.00284
x2 = 0.9654	0.00146

COC(C)=O + COC(=O)OC
Conditions	excess molar enthalpy [kcal/mol]
x2 = 0.0729	-0.000191
x2 = 0.1055	-0.000574
x2 = 0.1359	-0.0011
x2 = 0.2393	-0.00237
x2 = 0.3206	-0.00289
x2 = 0.3862	-0.00313
x2 = 0.586	-0.00232
x2 = 0.739	-0.00098
x2 = 0.7906	-0.000669
x2 = 0.8499	-9.56e-05
x2 = 0.883	0.000167
x2 = 0.9189	0.000454
x2 = 0.9577	0.000215

CCCOC(C)=O + COC(=O)OC
Conditions	excess molar enthalpy [kcal/mol]
x2 = 0.0538	0.00789
x2 = 0.1021	0.0143
x2 = 0.1457	0.0196
x2 = 0.1853	0.0249
x2 = 0.2544	0.0311
x2 = 0.3127	0.0361
x2 = 0.4056	0.0413
x2 = 0.4764	0.0437
x2 = 0.5771	0.044
x2 = 0.6718	0.0409
x2 = 0.8912	0.0174
x2 = 0.9161	0.0134

CCCCOC(C)=O + COC(=O)OC
Conditions	excess molar enthalpy [kcal/mol]
x2 = 0.0612	0.0117
x2 = 0.1153	0.022
x2 = 0.1636	0.0313
x2 = 0.2068	0.0397
x2 = 0.2812	0.0509
x2 = 0.3428	0.0586
x2 = 0.4389	0.0667
x2 = 0.5105	0.0688
x2 = 0.7578	0.0554
x2 = 0.8112	0.0454
x2 = 0.8622	0.0361
x2 = 0.9037	0.0263
x2 = 0.926	0.0203
x2 = 0.9494	0.0143
x2 = 0.9741	0.00765

C=COC(C)=O + COC(=O)OC
Conditions	excess molar enthalpy [kcal/mol]
x2 = 0.0437	-0.001
x2 = 0.0838	-0.00268
x2 = 0.1207	-0.0039
x2 = 0.1546	-0.00507
x2 = 0.2153	-0.00722
x2 = 0.2679	-0.00872
x2 = 0.3544	-0.0104
x2 = 0.4226	-0.0111
x2 = 0.5233	-0.0111
x2 = 0.6222	-0.0103
x2 = 0.8145	-0.00571
x2 = 0.8682	-0.00361
x2 = 0.8978	-0.00253
x2 = 0.9294	-0.00143
x2 = 0.9634	-0.000645

CCCCCCOC(C)=O + COC(=O)OC
Conditions	excess molar enthalpy [kcal/mol]
x2 = 0.0755	0.0206
x2 = 0.1404	0.0382
x2 = 0.2462	0.0688
x2 = 0.3289	0.0899
x2 = 0.3951	0.104
x2 = 0.4949	0.116
x2 = 0.5665	0.12
x2 = 0.7462	0.101
x2 = 0.7967	0.0903
x2 = 0.8546	0.0698
x2 = 0.9216	0.0406
x2 = 0.94	0.0304
x2 = 0.9522	0.0261
